Data from the OligoGym collection.
Oligonucleotides are given in HELM: sugar(base)linkage, 5' to 3'; d 2'-deoxyribose, r ribose, m 2'-O-methylribose, p phosphate. ss, as = sense and antisense strand
Also: test concentration or dose not given here.

The substances below were run against CDC34 (assay: reporter assay of Huesken 2005). Settings: siRNA.
“RNA1{r(C)p.r(U)p.r(C)p.r(A)p.r(G)p.r(A)p.r(C)p.r(C)p.r(U)p.r(C)p.r(U)p.r(U)p.r(C)p.r(U)p.r(A)p.r(C)p.r(G)p.r(A)p.r(C)p.d(T)p.d(T)}|RNA2{r(G)p.r(U)p.r(C)p.r(G)p.r(U)p.r(A)p.r(G)p.r(A)p.r(A)p.r(G)p.r(A)p.r(G)p.r(G)p.r(U)p.r(C)p.r(U)p.r(G)p.r(A)p.r(G)p.d(C)p.d(C)}$$$RNA1{StrandType:ss}|RNA2{StrandType:as}$” gave a normalised inhibition (eCFP-eYFP dual reporter) of 37.2%.
“RNA1{r(C)p.r(G)p.r(U)p.r(C)p.r(A)p.r(G)p.r(G)p.r(A)p.r(C)p.r(C)p.r(A)p.r(U)p.r(U)p.r(C)p.r(U)p.r(C)p.r(C)p.r(U)p.r(G)p.d(T)p.d(T)}|RNA2{r(C)p.r(A)p.r(G)p.r(G)p.r(A)p.r(G)p.r(A)p.r(A)p.r(U)p.r(G)p.r(G)p.r(U)p.r(C)p.r(C)p.r(U)p.r(G)p.r(A)p.r(C)p.r(G)p.d(T)p.d(T)}$$$RNA1{StrandType:ss}|RNA2{StrandType:as}$” showed a normalised inhibition (eCFP-eYFP dual reporter) of 72.1%.
With “RNA1{r(A)p.r(A)p.r(G)p.r(A)p.r(C)p.r(C)p.r(A)p.r(A)p.r(G)p.r(G)p.r(C)p.r(G)p.r(C)p.r(C)p.r(G)p.r(G)p.r(C)p.r(G)p.r(C)p.d(T)p.d(T)}|RNA2{r(G)p.r(C)p.r(G)p.r(C)p.r(C)p.r(G)p.r(G)p.r(C)p.r(G)p.r(C)p.r(C)p.r(U)p.r(U)p.r(G)p.r(G)p.r(U)p.r(C)p.r(U)p.r(U)p.d(C)p.d(A)}$$$RNA1{StrandType:ss}|RNA2{StrandType:as}$” the normalised inhibition (eCFP-eYFP dual reporter) was 25.5%.
For “RNA1{r(C)p.r(G)p.r(C)p.r(G)p.r(C)p.r(C)p.r(U)p.r(C)p.r(A)p.r(A)p.r(G)p.r(U)p.r(U)p.r(C)p.r(C)p.r(C)p.r(C)p.r(A)p.r(U)p.d(T)p.d(T)}|RNA2{r(A)p.r(U)p.r(G)p.r(G)p.r(G)p.r(G)p.r(A)p.r(A)p.r(C)p.r(U)p.r(U)p.r(G)p.r(A)p.r(G)p.r(G)p.r(C)p.r(G)p.r(C)p.r(G)p.d(C)p.d(C)}$$$RNA1{StrandType:ss}|RNA2{StrandType:as}$”, the normalised inhibition (eCFP-eYFP dual reporter) was 51.1%.
For “RNA1{r(G)p.r(A)p.r(C)p.r(C)p.r(A)p.r(U)p.r(U)p.r(C)p.r(U)p.r(C)p.r(C)p.r(U)p.r(G)p.r(A)p.r(G)p.r(U)p.r(G)p.r(U)p.r(G)p.d(T)p.d(T)}|RNA2{r(C)p.r(A)p.r(C)p.r(A)p.r(C)p.r(U)p.r(C)p.r(A)p.r(G)p.r(G)p.r(A)p.r(G)p.r(A)p.r(A)p.r(U)p.r(G)p.r(G)p.r(U)p.r(C)p.d(C)p.d(T)}$$$RNA1{StrandType:ss}|RNA2{StrandType:as}$”, the normalised inhibition (eCFP-eYFP dual reporter) was 44.9%.
“RNA1{r(C)p.r(C)p.r(A)p.r(C)p.r(C)p.r(C)p.r(G)p.r(C)p.r(C)p.r(G)p.r(G)p.r(U)p.r(G)p.r(G)p.r(A)p.r(C)p.r(G)p.r(A)p.r(C)p.d(T)p.d(T)}|RNA2{r(G)p.r(U)p.r(C)p.r(G)p.r(U)p.r(C)p.r(C)p.r(A)p.r(C)p.r(C)p.r(G)p.r(G)p.r(C)p.r(G)p.r(G)p.r(G)p.r(U)p.r(G)p.r(G)p.d(A)p.d(G)}$$$RNA1{StrandType:ss}|RNA2{StrandType:as}$” was tested, and the normalised inhibition (eCFP-eYFP dual reporter) was 44.2%.
In the case of “RNA1{r(G)p.r(A)p.r(U)p.r(C)p.r(U)p.r(A)p.r(U)p.r(A)p.r(C)p.r(A)p.r(A)p.r(C)p.r(U)p.r(G)p.r(G)p.r(G)p.r(A)p.r(G)p.r(G)p.d(T)p.d(T)}|RNA2{r(C)p.r(C)p.r(U)p.r(C)p.r(C)p.r(C)p.r(A)p.r(G)p.r(U)p.r(U)p.r(G)p.r(U)p.r(A)p.r(U)p.r(A)p.r(G)p.r(A)p.r(U)p.r(C)p.d(G)p.d(C)}$$$RNA1{StrandType:ss}|RNA2{StrandType:as}$”, the normalised inhibition (eCFP-eYFP dual reporter) is reported as 41.7%.
For “RNA1{r(G)p.r(G)p.r(A)p.r(A)p.r(G)p.r(C)p.r(A)p.r(G)p.r(G)p.r(U)p.r(C)p.r(C)p.r(U)p.r(G)p.r(G)p.r(G)p.r(G)p.r(A)p.r(C)p.d(T)p.d(T)}|RNA2{r(G)p.r(U)p.r(C)p.r(C)p.r(C)p.r(C)p.r(A)p.r(G)p.r(G)p.r(A)p.r(C)p.r(C)p.r(U)p.r(G)p.r(C)p.r(U)p.r(U)p.r(C)p.r(C)p.d(G)p.d(G)}$$$RNA1{StrandType:ss}|RNA2{StrandType:as}$”, the normalised inhibition (eCFP-eYFP dual reporter) was 58.4%.
For “RNA1{r(A)p.r(C)p.r(C)p.r(C)p.r(C)p.r(A)p.r(C)p.r(G)p.r(C)p.r(A)p.r(G)p.r(A)p.r(A)p.r(C)p.r(G)p.r(U)p.r(C)p.r(A)p.r(G)p.d(T)p.d(T)}|RNA2{r(C)p.r(U)p.r(G)p.r(A)p.r(C)p.r(G)p.r(U)p.r(U)p.r(C)p.r(U)p.r(G)p.r(C)p.r(G)p.r(U)p.r(G)p.r(G)p.r(G)p.r(G)p.r(U)p.d(T)p.d(C)}$$$RNA1{StrandType:ss}|RNA2{StrandType:as}$”, the normalised inhibition (eCFP-eYFP dual reporter) was 57.8%.
Work on “RNA1{r(C)p.r(U)p.r(A)p.r(C)p.r(G)p.r(A)p.r(G)p.r(G)p.r(G)p.r(C)p.r(G)p.r(G)p.r(C)p.r(U)p.r(A)p.r(C)p.r(U)p.r(U)p.r(C)p.d(T)p.d(T)}|RNA2{r(G)p.r(A)p.r(A)p.r(G)p.r(U)p.r(A)p.r(G)p.r(C)p.r(C)p.r(G)p.r(C)p.r(C)p.r(C)p.r(U)p.r(C)p.r(G)p.r(U)p.r(A)p.r(G)p.d(T)p.d(A)}$$$RNA1{StrandType:ss}|RNA2{StrandType:as}$” yielded a normalised inhibition (eCFP-eYFP dual reporter) of 59.8%.
With “RNA1{r(G)p.r(G)p.r(A)p.r(G)p.r(U)p.r(A)p.r(C)p.r(A)p.r(C)p.r(A)p.r(G)p.r(A)p.r(C)p.r(A)p.r(U)p.r(C)p.r(A)p.r(U)p.r(C)p.d(T)p.d(T)}|RNA2{r(G)p.r(A)p.r(U)p.r(G)p.r(A)p.r(U)p.r(G)p.r(U)p.r(C)p.r(U)p.r(G)p.r(U)p.r(G)p.r(U)p.r(A)p.r(C)p.r(U)p.r(C)p.r(C)p.d(C)p.d(G)}$$$RNA1{StrandType:ss}|RNA2{StrandType:as}$” the normalised inhibition (eCFP-eYFP dual reporter) was 76.6%.
In the case of “RNA1{r(C)p.r(A)p.r(A)p.r(G)p.r(G)p.r(C)p.r(G)p.r(C)p.r(C)p.r(G)p.r(G)p.r(C)p.r(G)p.r(C)p.r(C)p.r(C)p.r(G)p.r(A)p.r(C)p.d(T)p.d(T)}|RNA2{r(G)p.r(U)p.r(C)p.r(G)p.r(G)p.r(G)p.r(C)p.r(G)p.r(C)p.r(C)p.r(G)p.r(G)p.r(C)p.r(G)p.r(C)p.r(C)p.r(U)p.r(U)p.r(G)p.d(G)p.d(T)}$$$RNA1{StrandType:ss}|RNA2{StrandType:as}$”, the normalised inhibition (eCFP-eYFP dual reporter) is reported as 26.8%.
Work on “RNA1{r(G)p.r(A)p.r(G)p.r(U)p.r(A)p.r(C)p.r(U)p.r(G)p.r(C)p.r(G)p.r(U)p.r(G)p.r(A)p.r(A)p.r(G)p.r(A)p.r(C)p.r(C)p.r(A)p.d(T)p.d(T)}|RNA2{r(U)p.r(G)p.r(G)p.r(U)p.r(C)p.r(U)p.r(U)p.r(C)p.r(A)p.r(C)p.r(G)p.r(C)p.r(A)p.r(G)p.r(U)p.r(A)p.r(C)p.r(U)p.r(C)p.d(G)p.d(G)}$$$RNA1{StrandType:ss}|RNA2{StrandType:as}$” yielded a normalised inhibition (eCFP-eYFP dual reporter) of 73.7%.
Work on “RNA1{r(C)p.r(C)p.r(U)p.r(C)p.r(U)p.r(U)p.r(C)p.r(U)p.r(A)p.r(C)p.r(G)p.r(A)p.r(C)p.r(G)p.r(A)p.r(C)p.r(U)p.r(A)p.r(C)p.d(T)p.d(T)}|RNA2{r(G)p.r(U)p.r(A)p.r(G)p.r(U)p.r(C)p.r(G)p.r(U)p.r(C)p.r(G)p.r(U)p.r(A)p.r(G)p.r(A)p.r(A)p.r(G)p.r(A)p.r(G)p.r(G)p.d(T)p.d(C)}$$$RNA1{StrandType:ss}|RNA2{StrandType:as}$” yielded a normalised inhibition (eCFP-eYFP dual reporter) of 82.7%.
“RNA1{r(A)p.r(C)p.r(C)p.r(A)p.r(U)p.r(U)p.r(C)p.r(U)p.r(C)p.r(C)p.r(U)p.r(G)p.r(A)p.r(G)p.r(U)p.r(G)p.r(U)p.r(G)p.r(A)p.d(T)p.d(T)}|RNA2{r(U)p.r(C)p.r(A)p.r(C)p.r(A)p.r(C)p.r(U)p.r(C)p.r(A)p.r(G)p.r(G)p.r(A)p.r(G)p.r(A)p.r(A)p.r(U)p.r(G)p.r(G)p.r(U)p.d(C)p.d(C)}$$$RNA1{StrandType:ss}|RNA2{StrandType:as}$” gave a normalised inhibition (eCFP-eYFP dual reporter) of 81.3%.
“RNA1{r(C)p.r(C)p.r(G)p.r(A)p.r(G)p.r(U)p.r(A)p.r(C)p.r(U)p.r(G)p.r(C)p.r(G)p.r(U)p.r(G)p.r(A)p.r(A)p.r(G)p.r(A)p.r(C)p.d(T)p.d(T)}|RNA2{r(G)p.r(U)p.r(C)p.r(U)p.r(U)p.r(C)p.r(A)p.r(C)p.r(G)p.r(C)p.r(A)p.r(G)p.r(U)p.r(A)p.r(C)p.r(U)p.r(C)p.r(G)p.r(G)p.d(C)p.d(C)}$$$RNA1{StrandType:ss}|RNA2{StrandType:as}$” was tested, and the normalised inhibition (eCFP-eYFP dual reporter) was 59%.
In the case of “RNA1{r(C)p.r(G)p.r(A)p.r(G)p.r(G)p.r(G)p.r(C)p.r(G)p.r(A)p.r(U)p.r(C)p.r(U)p.r(A)p.r(U)p.r(A)p.r(C)p.r(A)p.r(A)p.r(C)p.d(T)p.d(T)}|RNA2{r(G)p.r(U)p.r(U)p.r(G)p.r(U)p.r(A)p.r(U)p.r(A)p.r(G)p.r(A)p.r(U)p.r(C)p.r(G)p.r(C)p.r(C)p.r(C)p.r(U)p.r(C)p.r(G)p.d(T)p.d(C)}$$$RNA1{StrandType:ss}|RNA2{StrandType:as}$”, the normalised inhibition (eCFP-eYFP dual reporter) is reported as 72.7%.
With “RNA1{r(C)p.r(U)p.r(C)p.r(C)p.r(U)p.r(G)p.r(A)p.r(G)p.r(U)p.r(G)p.r(U)p.r(G)p.r(A)p.r(U)p.r(C)p.r(U)p.r(C)p.r(C)p.r(C)p.d(T)p.d(T)}|RNA2{r(G)p.r(G)p.r(G)p.r(A)p.r(G)p.r(A)p.r(U)p.r(C)p.r(A)p.r(C)p.r(A)p.r(C)p.r(U)p.r(C)p.r(A)p.r(G)p.r(G)p.r(A)p.r(G)p.d(A)p.d(A)}$$$RNA1{StrandType:ss}|RNA2{StrandType:as}$” the normalised inhibition (eCFP-eYFP dual reporter) was 42.3%.
For “RNA1{r(G)p.r(A)p.r(U)p.r(G)p.r(U)p.r(A)p.r(C)p.r(A)p.r(G)p.r(G)p.r(A)p.r(A)p.r(G)p.r(U)p.r(G)p.r(G)p.r(A)p.r(A)p.r(A)p.d(T)p.d(T)}|RNA2{r(U)p.r(U)p.r(U)p.r(C)p.r(C)p.r(A)p.r(C)p.r(U)p.r(U)p.r(C)p.r(C)p.r(U)p.r(G)p.r(U)p.r(A)p.r(C)p.r(A)p.r(U)p.r(C)p.d(A)p.d(C)}$$$RNA1{StrandType:ss}|RNA2{StrandType:as}$”, the normalised inhibition (eCFP-eYFP dual reporter) was 82.9%.
In the case of “RNA1{r(G)p.r(G)p.r(U)p.r(G)p.r(G)p.r(A)p.r(C)p.r(G)p.r(C)p.r(G)p.r(G)p.r(A)p.r(G)p.r(C)p.r(G)p.r(U)p.r(G)p.r(A)p.r(C)p.d(T)p.d(T)}|RNA2{r(G)p.r(U)p.r(C)p.r(A)p.r(C)p.r(G)p.r(C)p.r(U)p.r(C)p.r(C)p.r(G)p.r(C)p.r(G)p.r(U)p.r(C)p.r(C)p.r(A)p.r(C)p.r(C)p.d(T)p.d(T)}$$$RNA1{StrandType:ss}|RNA2{StrandType:as}$”, the normalised inhibition (eCFP-eYFP dual reporter) is reported as 53.4%.
